Conditions: plant derived raw materials

Question: Which “Endotoxin Level” value does the source give for `O=C[C@H](O)[C@@H](O)[C@H](O)CO` [D-Xylose source 1, D-Xylose] here?
Answer: <0.07 EU/mg

Source: US11419909B2, “Compositions and methods for maintaining or enhancing homeostasis or function of female lower reproductive tract” (FAIRHAVEN HEALTH, LLC, priority 2016, dated 2022)
